System: CD23
Assay: Splenocyte cell surface density/distribution (FACS): CD23
Format: in vivo, mouse (Balb/c female)
Method: One group of 4 unstimulated Balb/c female mice is injected with PBS (Group A). Another (Group B) is injected with 20 μg (±) methyl 11α,16-dihydroxy-16-methyl-9-oxoprosta-5Z,13E-dien-1-oate as in Example 13. […] A 3 cm incision is made with a scalpel above the left hip, and the spleen is cut free from adjoining tissue and placed in a 100 mn plastic culture dish containing 10 ml PBS. The splenic cells are then made into a suspension, by rubbing the spleens between the rough, frosted ends of microscope slides repeatedly until the only remaining particulate matter is connective tissue. Cells are transferred to a 15 ml conical polystyrene tube and centrifuged in a centrifuge at 1200 rpm for 5 minutes. The supernatant is discarded by aspiration and the cell pellet is resuspended in 10 ml PBS, then centrifuged at 1200 rpm for 5 minutes. The supernatant is aspirated and the cell pellet is resuspended in 15 mM Tris, 140 mM Ammonium Chloride, to lyse red blood cells. After incubating at room temperature for 10 minutes the cell suspension is centrifuged at 1200 rpm for 10 minutes. The supernatant is discarded and the cell pellet is resuspended in 10 ml FACS Buffer (PBS containing 0.1% BSA and 0.1% Sodium Azide). The cell suspension is filtered through sterile glass wool plugged in the top of a pasteur pipet. Cells in the flow through are counted using a hemacytometer, then the cell suspension is centrifuged at 1200 rpm for 5 minutes. The supernatant is discarded and the cell pellet is resuspended in a volume of FACS Buffer that will yield 4×10^7 cells/ml. 10 μl (4×10^5 cells) is added to each well of a 96-well V-bottom plate. 25 μl of diluted monoclonal antibody directed against splenocyte cell surface proteins is added to each well: Major Histocompatability Complex (MHC) Class II (M5114, ATCC, Rockville Md.), MHC Class I (M1/42, ATCC), Anti-IgD (JA12.5, ATCC, Rockville, Md.), Thymocyte (Thy)-1 (JIJ, ATCC), B220 (14.8, ATCC), Kappa light chain (187, ATCC), IL-2 Receptor (7D4, ATCC), Lyt-1 (7.313, ATCC) and CD23 (biotinylated B3B4) and incubated on ice for 30 minutes. 100 μl 10% BSA 0.1% sodium azide is added to each well, then the plates are centrifuged at 1200 rpm for 10 minutes. The liquid is removed by aspiration and the cell pellets are resuspended in 100 μl FACS Buffer, and centrifuged at 1200 rpm for 5 minutes. […] Samples are transferred to individual tubes and 10,000 cells are analyzed. Using the Lysis software (Becton Dickinson, Mountain View, Calif.) the mean channel log fluorescence and percent positive cells are determined for the entire cell population. […]

## CCCCC(C)(O)C/C=C/[C@H]1[C@H](O)CC(=O)[C@@H]1C/C=C\CCCC(=O)OC (mixture of isomers) [(±) methyl 11α,16-dihydroxy-16-methyl-9-oxoprosta-5Z,13E-dien-1-oate]
anti-IgD stimulated mice, 20 μg days 3 and 4, day 7 (PBS 20.4)
  Percentage Positive Cells: 11.6 ± 1.6%
anti-IgD stimulated mice, 20 μg days 3 and 4, day 7 (PBS 99)
  Mean Channel Log Fluorescence: 95 ± 1.5
Unstimulated mice, 20 μg (PBS 46.6)
  Percentage Positive Cells: 44.2 ± 6.6%
Unstimulated mice, 20 μg (PBS 95)
  Mean Channel Log Fluorescence: 94 ± 3.2
